In ChEMBL document CHEMBL3244298, “Adamantylthiourea derivatives as antiviral agents” (J Med Chem, 1979):
The source made the active and inactive calls. The calls are words filed in the database; no cut-off is given here.

Tests used:
[1] = tested on: unidentified influenza virus; test: Antiviral activity against Influenza virus A2/Asian/J305 infected in ip dosed mouse assessed as concentration required to cause survival at 21 days; format: functional; conditions: 504 h, read-out: PD50
Respirovirus muris = test: Antiviral activity against Sendai virus infected in ip dosed mouse assessed as protection against viral infection; format: functional, organism-based
[2] = tested on: unidentified influenza virus; test: Antiviral activity against Influenza virus A2/Asian/J305 infected in mouse assessed as survival at 50 mg/kg, ip administered 3 doses on day of viral infection followed by 2 doses on next day and single dose per day for next 2 days relative to control; format: functional; conditions: 48 h, route intraperitoneal
[3] = tested on: unidentified influenza virus; test: Antiviral activity against Influenza virus A2/Asian/J305 infected in mouse assessed as survival at 100 mg/kg, ip administered two doses at 48 hrs post viral infection followed by single dose for subsequent days relative to control; format: functional; conditions: route intraperitoneal
Semliki Forest virus = test: Antiviral activity against Semliki forest virus infected in ip dosed mouse assessed as protection against viral infection; format: functional, organism-based
Mus musculus [4] = test: Toxicity in mouse assessed as CNS related side effects at 100 mg/kg, ip and 300 mg/kg, po measured for 24 hrs; format: organism-based, Central nervous system; conditions: in vivo
[5] = tested on: unidentified influenza virus; test: Antiviral activity against Influenza virus A2/Asian/J305 infected in mouse assessed as survival at 100 mg/kg, ip administered two doses at 24 hrs post viral infection followed by single dose for subsequent days relative to control; format: functional; conditions: route intraperitoneal
[6] = tested on: unidentified influenza virus; test: Antiviral activity against Influenza virus A2/Asian/J305 infected in mouse assessed as survival at 100 mg/kg, ip administered single dose at 5 mins post viral infection followed by 2 doses per day for next 3 days relative to control; format: functional; conditions: route intraperitoneal
[7] = tested on: unidentified influenza virus; test: Antiviral activity against Influenza virus A2/Asian/J305 infected in rhesus monkey kidney cells assessed as concentration required to reduce viral titer by >= 2 logarithms after 4 days by tube dilution method; format: functional
Herpesviridae sp. = test: Antiviral activity against Herpes simplex virus infected in ip dosed mouse assessed as protection against viral infection; format: functional, organism-based
Influenza B virus = test: Antiviral activity against Influenza B virus (B/Lee/40) infected in rhesus monkey kidney cells assessed as growth inhibition after 4 days by tube dilution method; format: functional, organism-based; conditions: B/Lee/1940
Enterovirus = test: Antiviral activity against Rhinovirus 42 infected in human WI38 cells assessed as growth inhibition after 7 days by tube dilution method; format: functional, organism-based; conditions: WI-38
[8] = tested on: unidentified influenza virus; test: Antiviral activity against Influenza virus A2/Asian/J305 infected in po dosed mouse assessed as concentration required to cause survival at 21 days; format: functional; conditions: 504 h, read-out: PD50
Mus musculus [9] = test: Toxicity in mouse assessed as tremors at > 600 mg/kg, ip measured for 24 hrs; format: organism-based; set-up: dose 600 mg/kg, route intraperitoneal; conditions: in vivo
Mus musculus [10] = test: Toxicity in mouse assessed as ataxia at > 600 mg/kg, ip measured for 24 hrs; format: organism-based; set-up: dose 600 mg/kg, route intraperitoneal; conditions: in vivo
[11] = tested on: unidentified influenza virus; test: Antiviral activity against Influenza virus A2/Asian/J305 infected in mouse assessed as survival at 200 mg/kg, ip administered single dose at 5 mins post viral infection followed by 2 doses per day for next 3 days relative to control; format: functional; conditions: route intraperitoneal
[12] = Acute toxicity in po dosed mouse measured for 24 hrs; format: organism-based; conditions: in vivo
Mus musculus [13] = test: Toxicity in mouse assessed as CNS related side effects up to 1000 mg/kg, po measured for 24 hrs; format: organism-based, Central nervous system; set-up: dose 1000 mg/kg, route oral; conditions: in vivo
[14] = Acute toxicity in ip dosed mouse measured for 24 hrs; format: organism-based; conditions: in vivo
[15] = tested on: unidentified influenza virus; test: Antiviral activity against Influenza virus A2/Asian/J305 infected in mouse assessed as survival at 200 mg/kg, ip administered two doses at 48 hrs post viral infection followed by single dose for subsequent days relative to control; format: functional; conditions: route intraperitoneal
[16] = tested on: unidentified influenza virus; test: Antiviral activity against Influenza virus A2/Asian/J305 infected in mouse assessed as survival at 200 mg/kg, ip administered 3 doses on day of viral infection followed by 2 doses on next day and single dose per day for next 2 days relative to control; format: functional; conditions: 48 h, route intraperitoneal
[17] = tested on: unidentified influenza virus; test: Antiviral activity against Influenza virus A2/Asian/J305 infected in mouse assessed as survival at 200 mg/kg, ip administered two doses at 24 hrs post viral infection followed by single dose for subsequent days relative to control; format: functional; conditions: route intraperitoneal

## NC(=S)NC12CC3CC(CC(C3)C1)C2
[1]
  ED50: > 200 mg/kg

## O=C(NC(=S)NC12CC3CC(CC(C3)C1)C2)Oc1ccccc1
[1]
  ED50: > 400 mg/kg

## O=C1CSC(NC23CC4CC(CC(C4)C2)C3)=N1
[1]
  ED50: > 200 mg/kg

## CCOC(=O)/N=C(/NC12CC3CC(CC(C3)C1)C2)SC
[1]
  ED50: 158 mg/kg

## CC(=O)Nc1ccc(S(=O)(=O)NC(=S)NC23CC4CC(CC(C4)C2)C3)cc1
[1]
  ED50: > 200 mg/kg

## Cc1ccc(S(=O)(=O)NC(=S)NC23CC4CC(CC(C4)C2)C3)cc1
[1]
  ED50: > 200 mg/kg

## NC(=O)NC(=S)NC12CC3CC(CC(C3)C1)C2
[1]
  ED50: > 400 mg/kg

## NC12CC3CC(CC(C3)C1)C2 [AMANTADINE]
Respirovirus muris
  Activity: inactive
[2]
  survival at 50 mg/kg: 72%
[3]
  survival at 100 mg/kg: 0%
Semliki Forest virus
  Activity: inactive
Mus musculus [4]
  Activity: Toxic
[5]
  survival at 100 mg/kg: 77%
[6]
  survival at 100 mg/kg: 67%
[1]
  ED50: 6 mg/kg
[7]
  Activity: 0.05 µg/mL
Herpesviridae sp.
  Activity: inactive
Influenza B virus
  growth inhibition (GI): inactive
Enterovirus
  growth inhibition (GI): inactive
[8]
  ED50: 4 mg/kg

## CCOC(=O)NC(=S)NC12CC3CC(CC(C3)C1)C2
[1]
  ED50: > 400 mg/kg

## Nc1ccc(S(=O)(=O)NC(=S)NC23CC4CC(CC(C4)C2)C3)cc1
Respirovirus muris
  Activity: inactive
Mus musculus [9]
  Activity: Toxic
Mus musculus [10]
  Activity: Toxic
Semliki Forest virus
  Activity: inactive
[11]
  survival at 200 mg/kg: 36%
[1]
  ED50: 16 mg/kg
[7]
  Activity: 12.5 µg/mL
Herpesviridae sp.
  Activity: inactive
[12]
  LD50 at 24 h: > 1000 mg/kg
Influenza B virus
  growth inhibition (GI): inactive
Enterovirus
  growth inhibition (GI): inactive
Mus musculus [13]
  Activity: Non-toxic
[14]
  LD50 at 24 h: 775 mg/kg
[15]
  survival at 200 mg/kg: 0%
[8]
  ED50: 35 mg/kg
[16]
  survival at 200 mg/kg: 77%
[17]
  survival at 200 mg/kg: 28%
